Earlier results on one compound are cited in patent publication US9585967B2, “Nicotine-containing product” (priority 2008, dated 2017).

The structures appear in SMILES notation.

For data set [1] the following is noted: in vivo.
The conditions of data set [2]: extensive first-pass metabolism.

For the compound `CN1CCC[C@H]1c1cccnc1` [Nicotine, (S)-3-(1-Methyl-2-pyrrolidinyl)pyridine], in data set [1], the “half life in the body” value is listed as “around two”. The Oral bioavailability entry in data set [2] is on record as “about 30%”.
